Measurements: the METLIN SMRT retention time set (Domingo-Almenara et al. 2019)

Assay: gradient 5% acetonitrile 3 min, to 50% in 2 min, to 85% in 15 min, held 3 min, 100 µL/min
Conditions: column: Zorbax Extend-C18 2.1 x 50 mm; eluents: water / acetonitrile, 0.1% formic acid
Method in brief: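 Over 3 months, pure standards in mixtures of ~100 molecules were run by HPLC coupled to a quadrupole time-of-flight mass spectrometer in positive and negative ionization mode. The column was a Zorbax Extend-C18 (2.1 × 50 mm, 1.8 μm) at 100 μL/min, eluted with water and acetonitrile each holding 0.1% formic acid, with 40 μL dead and 900 μL dwell volumes. Retention time was determined from adduct peaks chosen by software and checked manually.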

RP-LC retention time [s]	Structure (SMILES)
928	Cc1ccc(NC(=O)Cn2ncc3c(c2=O)N(CC2CC2)C(=O)CS3)cc1F
621	CCCCn1cnc2c(nnn2C)c1=O
847	CCOc1ccccc1N1CCN(S(=O)(=O)c2nn(C)cc2C(=O)NCCCOC)CC1
768	CCSc1nnc(-c2nn(C)c3c2CN(C(=O)c2c(F)cccc2Cl)CC3)n1C
792	O=C(Nc1nnc(-c2cc3ccccc3o2)o1)c1ccc([N+](=O)[O-])o1
668	Cc1ccc(NC(=O)Cn2c(C)nc3cc4c(cc32)OCCO4)c(C)c1
590	O=C(Nc1ccccc1)c1ccc(=O)n(CCN2CCOCC2)c1
772	Cc1ccccc1Cn1nc2n(c1=O)CCCCC2
1260	COc1cccc(N2CCN(S(=O)(=O)c3cc(-c4cc(C(F)(F)F)on4)sc3C)CC2)c1
1090	CCc1nc(-c2csc(S(=O)(=O)N3CCCC(C(=O)Nc4cc(C)ccc4C)C3)c2)no1 (stereo not drawn)
854	Cc1ccc(-n2cc(C(=O)NCc3ccco3)nn2)cc1C
911	Cc1ccc2[nH]cc(CCN3CC(C(=O)Nc4cccc(Br)c4)CC3=O)c2c1 (stereo not drawn)
1170	Cc1ccc(OCc2nc(Cc3nc(-c4ccccc4)oc3C)no2)cc1
1160	Cc1cccc(-c2noc(CN3C(=O)COc4ccc(Cl)cc43)n2)c1
712	CC(C)CCNC(=O)C1(C)Cn2nc(C(=O)NCc3ccccc3)cc2C(=O)N1C (stereo not drawn)
696	O=C(c1cc(=O)c(OCc2ccc(F)cc2)co1)N1CCN(c2ncccn2)CC1
554	O=C(CC(=O)N1CCN(C2CCCCC2)CC1)Nc1ccc2nc3n(c(=O)c2c1)CCCCC3
918	Cc1nc(-c2ccncc2)nc2c1CCC(=O)N2CC1CCCCC1
825	CN1C(=O)Cc2cc(C(=O)N3CCN(c4ccccc4Cl)CC3)ccc21
805	CCS(=O)(=O)N1CC(=O)N(c2ccc(F)cc2C)C(C)(C(=O)NC2CCCC2)C1 (stereo not drawn)
1200	CC(=O)[C@@]1(O)[C@H](C)C[C@H]2[C@@H]3C=C(C)C4=Cc5c(cnn5-c5ccccc5)C[C@]4(C)[C@H]3[C@@H](O)C[C@@]21C
1050	COc1ccc(-c2noc(Cn3c(=O)n(CC(C)C)c(=O)c4ccccc43)n2)cc1OC

RP-LC retention time [s]	Structure (SMILES)
682	Cc1[nH]c(C(=O)N2CCC(CC(=O)NCC3CCCO3)CC2)c(C)c1C(=O)OC(C)C (stereo not drawn)
586	Cc1nn(C(=O)CC(C)C)c(C)c1S(=O)(=O)N1CCCC1
699	COc1ccc(CCNC(=O)[C@@H]2[C@H](c3cc(OC)c(OC)c(OC)c3)c3cc4c(cc3[C@H](O)[C@H]2CO)OCO4)cc1OC
751	O=C(NCc1ccccc1Cl)C(=O)Nc1cccc(N2CCCCC2=O)c1
584	Cc1ccc(N2CCC(N)C2=O)cc1C (stereo not drawn)
684	Cc1nn(-c2cc(N(C)C)ncn2)c(C)c1CCC(=O)NCc1ccco1
898	CCCS(=O)(=O)NCCN1C(=O)C2(CCCCC2)C1c1ccccc1 (stereo not drawn)
878	O=C(Nc1ccccc1Cl)c1csc(-c2ccc(N3CCCC3)nc2)n1
928	O=C(C1CCCN(c2ncccc2-c2noc(C3CCC3)n2)C1)N1CCCCC1 (stereo not drawn)
690	CC(=O)Nc1ccc(N(Cc2nnc3n2CCCCC3)C(=O)Nc2ccc(Cl)cc2)cc1
862	O=C(Cc1ccc(Cl)cc1)NCC(=O)N1CCCc2ccccc21
644	Cc1[nH]c(C)c(S(=O)(=O)N2CCC(C(=O)Nc3cc(F)ccc3F)CC2)c1C(=O)N1CCCC1
707	CCc1ccc(CNC(=O)Cn2c(CC)nc3c(c2=O)CN(Cc2ccccc2)CC3)cc1
1120	O=C(NCc1ccc2c(c1)OCO2)c1c(O)c2cccnc2n(-c2ccccc2)c1=O
946	CCOCCCNC(=O)Cn1c(-c2cccs2)cc2cc(F)ccc21
1400	COc1ccc(-c2ccnn2-c2ccc(SCc3cccc(C)c3)nn2)cc1
868	CCn1cnc(S(=O)(=O)N2CCC(C(=O)N3CCN(c4cccc(C(F)(F)F)c4)CC3)CC2)c1
981	COc1ccc(NC(=O)CSc2cc(N3CCN(c4ccccc4OC)CC3)ncn2)cc1Cl
990	O=C(Cn1nc2c(Oc3ccc(Cl)cc3)nccn2c1=O)Nc1ccc(F)c(Cl)c1
808	O=C1CCC2(C(=O)NCCc3ccccc3)CCCC=C2N1c1ccccc1 (stereo not drawn)
820	C=CCNC(=O)c1cn(-c2cc(-c3nc(C(C)C)no3)ccn2)cn1
745	CCOC(=O)C1CCN(Cc2nc(-c3ccc(N4CCC(C)CC4)nc3)no2)CC1

RP-LC retention time [s]	Structure (SMILES)
773	CCOc1ccccc1N(C)C(=O)Cc1c(C(=O)O)c(C)cn1C
708	CCCNC(=O)N1CCC2(CC1)C(=O)N(C)c1ccccc12
563	CCOCC(=O)N1C[C@@H]2CCCN3CCC[C@@H]([C@H]23)[C@H]1CCCC(=O)N1CCOCC1
610	CCn1c(N2CCC(C(=O)NCCCOC)CC2)cc(=O)n(C)c1=O
787	Cc1nc2cc(N3CC(C(=O)Nc4ccc(Cl)cc4F)CC3=O)ccc2o1 (stereo not drawn)
667	Cc1ccccc1Cn1cc(-c2ccncc2)cc1C(=O)NCC1CCCO1 (stereo not drawn)
643	Cc1oc2c(c1C(=O)Nc1cccc(Br)c1)C1=NCCN1C=N2
817	CC(=O)Nc1ccc(NC(=O)c2ccc3noc(-c4ccc(Cl)cc4)c3c2)cc1
579	CCN1CCN(CCNC(=O)c2ccc3c(c2)N(C)C(=O)C2CCCCN32)CC1 (stereo not drawn)
730	CCc1ccccc1N1C[C@@]23C=C[C@@H](O2)[C@H](C(=O)OC)[C@@H]3C1=O
878	Cc1cccc(-c2noc(Cn3ncn4nc(-c5ccc(C)cc5C)cc4c3=O)n2)c1
834	CCC(=O)N1CCc2c(sc3ncnc(NCCc4ccccc4)c23)C1
652	O=C(c1ccc(S(=O)(=O)c2ccccc2)s1)N1CCN(c2ccccn2)CC1
696	O=C(c1ccnnc1)N1CC(F)(F)C[C@H]1c1nnc(-c2ccccc2)o1
778	Cc1noc(/C=C/c2ccc(S(=O)(=O)N3CCOCC3)s2)c1NC(=O)C1CC1
930	COC(=O)c1cccc(N2C=C(C#N)S(=O)(=O)c3ccc(Cl)cc32)c1
723	Cc1oc(CNC(=O)Nc2ccc(Cl)cc2F)nc1C(=O)N1CCCC1
865	Cc1nnc2c(S(=O)(=O)N(Cc3ccccc3)c3cc(F)cc(F)c3)cccn12
1190	O=S(=O)(c1cc(-c2ccno2)cs1)N(Cc1cccs1)C1CCCCC1
1190	Cc1ccc(N2CC(c3noc(-c4ccc(C)cc4C)n3)CC2=O)cc1 (stereo not drawn)
868	CSc1ccc(-c2nc3c(C)cccn3c2NC2CCCCC2)cc1
662	Cc1ccc(CNC(=O)C2(C)Cn3nc(C(=O)N4CCOCC4)cc3C(=O)N2C)cc1 (stereo not drawn)

RP-LC retention time [s]	Structure (SMILES)
782	COC1CCC12CCN(C(=O)Nc1ccccc1)CC2 (stereo not drawn)
812	CN(C)c1ccc(C(=O)Nc2cc(-c3ccccn3)no2)cc1
991	CCn1cc(-c2ccc(C)cc2)cc1C(=O)NC1CC1
632	O=C(Nc1nc(C(=O)N2CCN(c3ncccn3)CC2)co1)c1ccccc1
838	O=C(CN1CCc2ccccc2C1C(=O)N1CCCC1)NCc1cccc(C(F)(F)F)c1 (stereo not drawn)
774	CCc1nnc(-c2cc(NC(=O)c3ccnn3C)c(C)s2)o1
649	CN(C)CCCNC(=O)C1CCN(c2nc3ccc(-c4ccccc4F)nc3s2)CC1
944	Cc1ccc(-c2ccnc(SCC(=O)NCc3ccccc3)n2)cc1C
727	Cc1ccc(NC(=O)C2(C)Oc3cccnc3NC2=O)cc1 (stereo not drawn)
984	Cc1ccc(Cl)cc1N1CCN(C(=O)c2cc3sccc3n2C)CC1
1220	Cc1sc2ncnc(N3CCCC(C)C3)c2c1C(=O)Nc1cc(F)ccc1F (stereo not drawn)
730	COc1ccc(NC(=O)C2CCN(S(=O)(=O)c3cc(C(=O)N(C)C)cs3)CC2)cc1
818	Cc1ccc(C)c(C(=O)CCC(=O)O)c1
1140	Cc1ccc(S(=O)(=O)N2CCCC(c3nc(-c4cccc(-c5ccnn5C)c4)no3)C2)cc1 (stereo not drawn)
844	Cn1cc(-c2cc3n(n2)CCC(=O)N3CCCC(=O)Nc2ccccc2F)c2ccccc21
575	Cn1nc2n(c1=O)CCN(C(=O)c1cc(C3CC3)[nH]n1)CC2
602	Cc1cc(S(=O)(=O)N2CC(c3nc(-c4ccccc4)nn3C)C2)ccc1F
731	CCC(=O)Nc1ccc(-n2cnc(C(=O)NC3CCCCC3)c2)nc1
958	CC(C)S(=O)(=O)N[C@H]1CCOC[C@@H]1c1ccc(-c2ccc(C#N)s2)cc1
947	Cc1ccnc(Nc2nc(-c3ccc(Cl)cc3)cs2)c1

Structure (SMILES)	RP-LC retention time [s]
COc1ccc(S(=O)(=O)N2[C@H]3CC[C@@H]2c2cncnc2C3)cc1	715
CC(C)CN1Cc2ccccc2-n2ccnc2C12CCN(C(=O)c1ccn[nH]1)CC2	615
